In PubChem BioAssay (NCI):
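In this assay, cells in 96-well plates receive the compound at five concentrations for 48 hours. Endpoints are linearly interpolated between the surrounding concentrations. At the TGI there is no net growth.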

Experiments:
Experiment in all cases: DTP human tumour cell line panel, 48 h
A549 NSCLC = test system: A549 NSCLC
HCC-2998 colon = test system: HCC-2998 colon
HCT-116 colon = test system: HCT-116 colon
HL-60(TB) leukemia = test system: HL-60(TB) leukemia
KM12 colon = test system: KM12 colon
MALME-3M melanoma = test system: MALME-3M melanoma
MCF7 breast = test system: MCF7 breast
MDA-MB-231 breast = test system: MDA-MB-231 breast
NCI/ADR-RES ovarian = test system: NCI/ADR-RES ovarian
OVCAR-3 ovarian = test system: OVCAR-3 ovarian
OVCAR-4 ovarian = test system: OVCAR-4 ovarian
OVCAR-8 ovarian = test system: OVCAR-8 ovarian
PC-3 prostate = test system: PC-3 prostate
RXF 393 renal = test system: RXF 393 renal
SF-268 CNS = test system: SF-268 CNS
SK-OV-3 ovarian = test system: SK-OV-3 ovarian
T-47D breast = test system: T-47D breast
TK-10 renal = test system: TK-10 renal
UACC-257 melanoma = test system: UACC-257 melanoma

| Compound | TGI (A549 NSCLC) [µM] | TGI (HCC-2998 colon) [µM] | TGI (HCT-116 colon) [µM] | TGI (HL-60(TB) leukemia) [µM] | TGI (KM12 colon) [µM] | TGI (MALME-3M melanoma) [µM] | TGI (MCF7 breast) [µM] | TGI (MDA-MB-231 breast) [µM] | TGI (NCI/ADR-RES ovarian) [µM] | TGI (OVCAR-3 ovarian) [µM] | TGI (OVCAR-4 ovarian) [µM] | TGI (OVCAR-8 ovarian) [µM] | TGI (PC-3 prostate) [µM] | TGI (RXF 393 renal) [µM] | TGI (SF-268 CNS) [µM] | TGI (SK-OV-3 ovarian) [µM] | TGI (T-47D breast) [µM] | TGI (TK-10 renal) [µM] | TGI (UACC-257 melanoma) [µM] |
| --- | --- | --- | --- | --- | --- | --- | --- | --- | --- | --- | --- | --- | --- | --- | --- | --- | --- | --- | --- |
| O=[N+]([O-])c1cccc2nccc(NCCN3CCOCC3)c12 | 43.3 | 26.4 | 30.5 | > 34.6 | 40 | 18.7 | 25.5 | 71.1 | > 100 | 25.2 | 25.6 | > 54.2 | 39.1 | 31.9 | > 66.7 | > 100 | > 100 | > 48.4 | 29 |
| CC(Oc1ccccc1Cl)C(=O)NN1C(=O)CC(=O)N(c2ccc(Cl)cc2)C1=S (centres undefined) | > 100 | > 100 | > 100 | 8.68 | > 100 | > 100 | > 100 | > 100 | > 100 | > 100 | > 100 | > 100 | > 100 | 90.4 | > 100 | > 100 | > 100 | > 100 | > 100 |
| Nc1ccccc1C(=O)N=Nc1c(O)[nH]c2ccccc12 | > 100 | > 100 | > 100 | – | > 100 | > 100 | > 100 | > 100 | > 100 | > 100 | > 100 | > 100 | > 100 | > 100 | > 100 | > 100 | > 100 | > 100 | > 100 |
| O=C1CSC(c2ccccc2O)N1c1ccc(-n2c(-c3ccccc3)nc3ccccc3c2=O)cc1 (centres undefined) | > 100 | > 100 | 35.9 | > 100 | 97.7 | 74.6 | > 100 | 37.5 | 72.6 | 41.5 | > 100 | > 100 | 58.7 | > 100 | > 100 | 95.3 | 65.8 | > 100 | 82.2 |
| COc1ccc(COCC[C@H](C)OC2OC(CO)C(O)C(O)C2O)cc1 (some centres undefined) | > 100 | > 100 | > 100 | > 100 | > 100 | – | > 100 | > 100 | > 100 | > 100 | > 100 | > 100 | > 100 | > 100 | > 100 | > 100 | > 100 | > 100 | > 100 |
| O=CNc1ccccc1OCCOc1ccccc1NC=O | > 100 | > 100 | > 100 | > 100 | > 100 | > 100 | > 100 | > 100 | > 100 | > 100 | > 100 | > 100 | > 100 | > 100 | > 100 | > 100 | > 100 | > 100 | > 100 |
| CCOC(=O)c1c[nH]c(C(=O)C=[N+]=[N-])c1C1CCN(CC)C1=S (centres undefined) | > 100 | > 100 | > 100 | – | > 100 | > 100 | > 100 | > 100 | > 100 | > 100 | > 100 | > 100 | > 100 | > 100 | > 100 | > 100 | > 100 | > 100 | > 100 |
| CC(C)(O)c1cc2c(cc1C(C)(C)O)-c1ccccc1-2 | > 100 | > 100 | – | > 100 | > 100 | > 100 | > 100 | > 100 | > 100 | > 100 | > 100 | > 100 | > 100 | > 100 | > 100 | – | > 100 | > 100 | > 100 |
| O=C1Cc2cn[nH]c2-c2ccccc2N1 | > 64.2 | 67.3 | > 83.5 | > 78.3 | > 67.3 | > 69.7 | > 100 | > 62 | > 100 | 37.5 | > 75.1 | > 100 | > 100 | 72.3 | > 100 | > 100 | > 100 | 91.5 | > 60.5 |
| CCOC(=O)C(=CNc1ccc(F)c(F)c1)C(=O)OCC | > 100 | > 100 | > 100 | > 100 | > 100 | > 100 | > 100 | > 100 | > 100 | > 100 | > 100 | > 100 | > 100 | > 100 | > 100 | > 100 | > 100 | > 100 | > 100 |
| O=C(NCCNCCNC(=O)c1cc(-c2ccccc2)nc2ccccc12)c1cc(-c2ccccc2)nc2ccccc12 | 9.13 | 3.14 | 3.18 | 5 | 4.03 | 3.33 | 3.96 | 7.32 | 4.18 | 5.73 | 5.98 | 4.54 | 8.88 | 3.56 | 9.55 | 17.7 | 7.62 | 7.96 | 3.92 |
| CN=c1sc2nc(C#N)c(C#N)nc2n1C | 33.9 | 55.8 | 36 | > 40.4 | > 67.8 | 36.4 | 38.1 | > 80.7 | 59.1 | 72.1 | 49.1 | – | > 100 | 40.5 | > 94.7 | 49.2 | > 91.7 | > 63.4 | > 100 |
| C[C@@H]1CC[C@@H]2[C@@H](C1)O[C@@H]([C@@H](C)OCc1ccccc1)SC2(C)C | 83.4 | 33.7 | 34.5 | – | 34.4 | 37.9 | 35.3 | 38.2 | 40.2 | – | 69.7 | 58.8 | 45.4 | 30.7 | 51.8 | 59.9 | 32.4 | 55.4 | 39.9 |
